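1) Cells in 96-well plates. 2) Compound, 48 h, 5 concentrations. 3) Linear interpolation between surrounding doses. 4) Unreached endpoint = highest concentration. GI50: concentration for 50% inhibition of growth.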 The source made the active and inactive calls. Cut-off read from the data, not from the text of the source: active = GI50 up to about 1.1 µM and inactive = higher.

Among the test systems are 786-0; HOP-62; HT-29; IGROV-1; KM12; M14; MDA-MB-231; MOLT-4; OVCAR-4; OVCAR-8; PC-3; RPMI-8226; SF-268; SF-295; SF-539; SK-OV-3; SN12C; SNB-75; NCI-H23; BT-549.
What all share (experiment): DTP human tumour cell line panel, 48 h

As a reminder, the GI50 is the concentration that inhibits growth by half. Regarding `OCC(O)C(O)C(O)C(/C=N\Nc1ncnc2ccc(Br)cc12)=N/Nc1ncnc2ccc(Br)cc12` (centres undefined), the GI50 is 5.47 µM (inactive) with 786-0; 7.16 µM (inactive) with HOP-62; 4.44 µM (inactive) in the test with HT-29; 4.09 µM (inactive) in the test on IGROV-1; 17.2 µM (inactive) with KM12; 9.48 µM (inactive) in the test with M14. The GI50 is 2.87 µM (inactive) with MDA-MB-231; 2.62 µM (inactive) in the test on MOLT-4; 2.94 µM (inactive) in the test on OVCAR-4; 4.01 µM (inactive) in the test on OVCAR-8; 19 µM (inactive) in the test on PC-3; > 100 µM (inactive) in the test on RPMI-8226. In addition, the concentration for 50% growth inhibition (GI50) is 0.423 µM (active) in the test on SF-268; 23 µM (inactive) in the test with SF-295; 8.3 µM (inactive) in the test with SF-539; 6.38 µM (inactive) in the test on SK-OV-3; 17.9 µM (inactive) in the test with SN12C; 24.4 µM (inactive) in the test on SNB-75.
As to `CCOC(=O)C1c2[nH]c3ccccc3c2CCN1C(=O)c1ccc(OC)o1` (centres undefined), the GI50 in the test on 786-0, in the test on HOP-62, in the test on HT-29, with IGROV-1, in the test with KM12 and in the test on M14 was > 10 µM (inactive) throughout. The GI50 with MDA-MB-231, in the test with MOLT-4, in the test with NCI-H23, in the test with OVCAR-4, in the test with OVCAR-8 and in the test with PC-3 was > 10 µM (inactive) each time. In addition, the GI50 with RPMI-8226, with SF-268, in the test with SF-295, in the test on SF-539, in the test with SK-OV-3 and in the test on SN12C was > 10 µM (inactive) throughout. In addition, the GI50 with SNB-75 was 5.78 µM (inactive).
On to `CCN(CC)CCCNc1nc(=O)[nH]c(C)c1C(=O)Nc1cccc2cc3ccccc3cc12`, for which the GI50 with 786-0 was > 100 µM (inactive); with HOP-62, > 100 µM (inactive); with HT-29, > 100 µM (inactive); in the test on IGROV-1, > 100 µM (inactive); with KM12 it was 45.9 µM (inactive); with M14, > 100 µM (inactive). Besides, the GI50 in the test on MDA-MB-231 was 82.4 µM (inactive); in the test with MOLT-4, > 100 µM (inactive); with NCI-H23, > 100 µM (inactive); with OVCAR-4, > 100 µM (inactive); with OVCAR-8 it was > 100 µM (inactive); in the test on PC-3, > 100 µM (inactive). Moreover, the GI50 in the test with RPMI-8226, with SF-295, with SF-539, in the test with SK-OV-3, with SN12C and with SNB-75 was > 100 µM (inactive) in each case.
For the compound `COC(=O)c1c2c(cc3c1CC1(Cc4cc5c(c(C)c4C1)CCC5)C3)CCC2` (centres undefined), the GI50 in the test on 786-0, in the test with HOP-62, with HT-29, in the test on IGROV-1, in the test with M14 and with MDA-MB-231 was > 100 µM (inactive) in each case. The GI50 in the test with MOLT-4, with NCI-H23, with OVCAR-4, with OVCAR-8, in the test with PC-3 and in the test with RPMI-8226 was > 100 µM (inactive) in each case. Moreover, the GI50 in the test on SF-268, in the test on SF-295, in the test on SF-539 and in the test with SK-OV-3 was > 100 µM (inactive) in each case.
As for `CC(C(O)c1ccccc1)C(O)(C(F)(F)F)C(F)(F)F` (centres undefined), the GI50 is > 100 µM (inactive) in the test with 786-0; > 100 µM (inactive) in the test with HOP-62; > 100 µM (inactive) in the test on HT-29; 84.5 µM (inactive) in the test on IGROV-1; > 100 µM (inactive) with KM12; > 100 µM (inactive) in the test with M14. Moreover, the GI50 in the test on MDA-MB-231, with MOLT-4, with NCI-H23, in the test with OVCAR-4, in the test with OVCAR-8 and with PC-3 was > 100 µM (inactive) each time. The GI50 in the test on RPMI-8226, in the test on SF-268, in the test on SF-295, in the test with SF-539, in the test with SK-OV-3 and in the test on SN12C was > 100 µM (inactive) each time. In the test with SNB-75, the GI50 is 65.3 µM (inactive).
As to `COc1ccccc1CNCCCCCNCCCCCCCCCCNCCCCCNCc1ccccc1OC`, the GI50 is 23.9 µM (inactive) in the test on 786-0; 23.5 µM (inactive) with BT-549; 16 µM (inactive) in the test on HOP-62; 96.6 µM (inactive) in the test on HT-29; 18.8 µM (inactive) in the test with IGROV-1; 4.54 µM (inactive) in the test on KM12. Moreover, the GI50 in the test on M14 is 73.6 µM (inactive); in the test with MDA-MB-231 it was 16.2 µM (inactive); in the test on MOLT-4, 13.6 µM (inactive); in the test on NCI-H23 it was 42.2 µM (inactive); with OVCAR-4 it was 79.1 µM (inactive); in the test with OVCAR-8 it was 25.6 µM (inactive). Also, the GI50 in the test on RPMI-8226 is 36.7 µM (inactive); with SF-268, 39.4 µM (inactive); with SF-295 it was 24.7 µM (inactive); with SF-539, 8.65 µM (inactive); in the test with SN12C, 27.4 µM (inactive); with SNB-75, 25.6 µM (inactive).
As to `O=C1c2ccccc2C(=O)N1CCSCC(CO)SCCN1C(=O)c2ccccc2C1=O` (centres undefined), the GI50 in the test on 786-0, with BT-549, with HOP-62, in the test with HT-29, in the test with IGROV-1 and with KM12 was > 100 µM (inactive) each time. The GI50 in the test with M14 was 96.8 µM (inactive); in the test with MDA-MB-231, > 100 µM (inactive); in the test with MOLT-4 it was 74 µM (inactive); in the test with NCI-H23, > 100 µM (inactive); in the test on OVCAR-4 it was 48.6 µM (inactive); with OVCAR-8, > 100 µM (inactive). The GI50 was > 100 µM (inactive) in the test with PC-3; 80.2 µM (inactive) in the test with RPMI-8226; > 100 µM (inactive) in the test on SF-268; > 100 µM (inactive) with SF-295; > 100 µM (inactive) with SK-OV-3; > 100 µM (inactive) with SN12C.
Turning to `COc1ccc2[nH]cc(CCNC(=O)[C@H](Cc3ccccc3)NC(=O)[C@@H](NCC(F)(F)F)C(C)C)c2c1`, the GI50 with 786-0 was 18.1 µM (inactive); in the test on BT-549, 21.4 µM (inactive); in the test on HOP-62, 14.8 µM (inactive); in the test on HT-29 it was 16.7 µM (inactive); in the test on IGROV-1, 21.2 µM (inactive); with KM12, 18.5 µM (inactive). For the same compound, the GI50 with M14 was 17.7 µM (inactive); in the test with MDA-MB-231 it was 18.5 µM (inactive); in the test with MOLT-4, 20.4 µM (inactive); in the test with NCI-H23 it was 25.3 µM (inactive); in the test on OVCAR-4 it was 16.3 µM (inactive); with OVCAR-8 it was 23.3 µM (inactive). Further, the GI50 was 18.2 µM (inactive) in the test with PC-3; 8.17 µM (inactive) in the test on RPMI-8226; 11.2 µM (inactive) in the test with SF-295; 19 µM (inactive) in the test with SF-539; 18.2 µM (inactive) in the test on SK-OV-3; 24.5 µM (inactive) in the test on SN12C.

The values above are taken from ChEMBL document CHEMBL1201862, “PubChem BioAssay data set” (2004).
